Experimental data: publication PMC8584229, “Comparative Antiseizure Analysis of Diverse Natural Coumarin Derivatives in Zebrafish” (International Journal of Molecular Sciences, 2021)
Where two headings read alike, the source gives them in different places.

Tests used:
GABAA receptor = tested on: GABAA receptor; set-up: method as in PMID 21749864; details: cited from earlier work; for EC50: read-out: EC50 (potentiation of IGABA)
[1] = tested on: PTZ-induced seizure-like behavior (locomotor activity) of zebrafish larvae; assay: Larval zebrafish PTZ seizure model, locomotor analysis (behavioral antiseizure activity); format: in vivo, zebrafish (Danio rerio); details: for antiseizure activity in the locomotor assay (in words) / lowered seizure-like behavior / decrease of PTZ-induced locomotor activity / decrease of seizure-like behavior / lowered PTZ-induced locomotion: 20 mM PTZ; for antiseizure activity in the locomotor assay (in words): up to MTC; for lowered seizure-like behavior: abstract summary, highest effect, 18 h pre-incubation; for decrease of PTZ-induced locomotor activity: range over all test concentrations (MTC and 2-, 4-, 8-fold dilutions)
Procedure: The effect of different concentrations of test compounds was explored on the locomotor behavior of larvae exposed to the GABA-antagonist PTZ. All compounds were tested at four concentrations—the maximum tolerated concentration (MTC) and two-fold, four-fold, and eight-fold dilutions of the MTC. […] In all experiments, as expected, the positive control VPA (1 mM) decreased seizure-like behavior (i.e., PTZ-induced elevated locomotor activity) with an average (±SD) of 44 ± 34%. […] The antiseizure effect depended on either the type of coumarin or the concentration.
Adult zebrafish (Danio rerio) stocks of the AB strain were maintained at 28.5 °C, on a 14/10 h light/dark cycle under standard aquaculture conditions, and fertilized eggs were collected via natural spawning. Embryos were reared under standard light/dark conditions in embryo medium (1.5 mM HEPES, pH 7.1–7.3, 17.4 mM NaCl, 0.21 mM KCl, 0.12 mM MgSO4, 0.18 mM Ca(NO3)2, and 0.6 μM methylene blue) in an incubator at 28.5 °C. For all measurements, 7-days post-fertilization (dpf) larvae were used, which were treated at 6 dpf. The zebrafish experiments described here were approved by the Local Ethics Committee in Lublin (license no: 109/2018), the Ethics Committee of the University of Leuven (approval number 023/2017), and the Belgian Federal Department of Public Health, Food Safety & Environment (approval number LA1210199). All experiments complied with the EU Directive 2010/63/EU for animal experiments.
All compounds were dissolved in dimethyl sulfoxide (DMSO) and diluted in embryo medium to achieve a final DMSO concentration of 1% v/v. Embryo medium prepared with DMSO to a final concentration of 1% v/v served as a vehicle (VHC) control. PTZ (40 mM) was dissolved in embryo medium. The control anticonvulsant used in this study was VPA.
Six-dpf larvae were treated with VHC (embryo medium (1% DMSO)), VPA (1 mM), or tested compound, in 100 µL volume for 18 h, in individual wells of a 96-well plate at 28.5 °C in the dark. Larvae were allowed to habituate for 5 min in a dark chamber of an automated tracking device (ZebraBox system, Viewpoint, Lyon, France). Then, 100 µL of embryo medium or 100 µL of a 40 mM PTZ solution was added to obtain a final concentration of 20 mM [33] and the locomotor activity was measured to evaluate seizure intensity. The total locomotor activity was quantified using ZebraLab software (Viewpoint, Lyon, France). Total locomotor activity was expressed as total distance moved. All tracking experiments were performed at least in triplicate.
(§1) All statistical analyses were performed using GraphPad Prism 5 or 7 software (GraphPad Software, Inc., San Diego, CA, USA). The locomotor activity of zebrafish larvae and electrophysiological antiseizure analysis was evaluated using one-way ANOVA followed by Dunnett’s multiple comparisons test. Values were presented as lardist sum ± standard error of the mean (SEM) or normalized PSD (%) ± standard error of the mean (SEM). Lardist is large movement distance (>6 mm/s), measured in millimeters. Significance levels: * p ≤ 0.05, ** p ≤ 0.01, and *** p ≤ 0.001.

[2] = tested on: maximal electroshock-induced seizures; details: cited from earlier work; for ED50 of classic anticonvulsant alone: without umbelliferone
[3] = tested on: PTZ-induced epileptiform activity in the zebrafish larval optic tectum; assay: Local field potential recordings from the optic tectum, power spectral density analysis; format: in vivo, zebrafish (Danio rerio); details: MTC, 18 h incubation; 20 mM PTZ; 20–90 Hz band
Procedure: To further investigate the results of the behavioral study for all eight selected compounds, local field potential (LFP) measurements were employed. Zebrafish larvae were incubated with the compounds at their MTC for 18 h in darkness and the epileptiform activity was measured in the zebrafish larval optic tectum. A significant reduction in larvae with PTZ-induced epileptiform activity was observed, in comparison to PTZ-treated controls, for all compounds except nodakenetin (Figure 3).
For the rapid, objective, and automated analysis of the LFP recordings, power spectral density (PSD) analysis was performed. This methodology was previously developed and used for zebrafish electrophysiology. It relies on the Welch’s method of averaging the modified periodograms with a 512-point fast Fourier transformation with 80% overlapping 100 sample (100 ms) long segments and a Hamming window. PSDs were estimated for each LFP recording over each 10 Hz frequency band, ranging from 0 to 160 Hz. All examined furanocoumarins at the MTC concentration ameliorated the excitatory effect of preincubation with PTZ. Oxypeucedanin (1), oxypeucedanin hydrate (2), and notopterol (3) decreased normalized PSD per larva to a similar level with 83–89%. […] Pimpinellin (14, an angular furanocoumarin), daphnoretin (17, a simple coumarin derivative), and hyuganin C (18, a dihydropyranocoumarin) decreased normalized PSD by 81, 88, and 65%, respectively.
Non-invasive local field potential recordings were performed from the optic tectum of 7-dpf zebrafish larvae. Larvae were treated with VHC (embryo medium (1% DMSO)) or compound (MTC) in 100 µL volume (in individual wells of a 96-well plate) in darkness (28 °C) for 18 h before measurement. Prior to the recording, 100 µL of VHC (embryo medium) or 40 mM PTZ (to obtain a final concentration of 20 mM) was added to the well for 15 min. After incubation, the larva was immobilized in 2% low-melting-point agarose (Invitrogen, Carlsbad, CA, USA) and the signal electrode, an electrode inside a blunt soda-glass pipet (1412227, Hilgenberg, Germany), was positioned on the skin covering the optic tectum. Electrophysiological recordings where performed as described before. Automated power spectral density analysis was performed using MATLABR2018b (The MathWorks, Inc., Natick, MA, USA), as described before.
as §1

[4] = tested on: seizure-related locomotor activity of zebrafish; set-up: method as in PMID 30668376; details: cited from earlier work

CC(C)=CCOc1c2occc2cc2ccc(=O)oc12 [imperatorin]
enhancement of IGABA (GABAA receptor): greater than 20%
antiseizure activity in the locomotor assay (in words) [1]: lack of antiseizure activity
raised threshold for electroconvulsions ([2]; 50 mg/kg i.p., mice): 38%
raised threshold for electroconvulsions ([2]; 100 mg/kg i.p., mice): 68%

COc1c2occc2cc2ccc(=O)oc12 [xanthotoxin, reference compound]
ED50 (anticonvulsant activity) ([2]; administered 60 min before electroconvulsion, mice): 219.1 ± 4.7 mg/kg

COc1c(OC)c2occc2c2oc(=O)ccc12 [pimpinellin]
enhancement of IGABA (GABAA receptor): greater than 20%
lowered seizure-like behavior [1]: 60%
decrease of normalized PSD (PTZ-induced elevation in power spectral density) [3]: 81%

CC(C)(O)[C@H]1Cc2cc3ccc(=O)oc3cc2O1 [nodakenetin]
lowered seizure-like behavior [1]: 29%
decrease of normalized PSD (PTZ-induced elevation in power spectral density) [3]: 26%

COc1c2ccoc2c(OC[C@H]2OC2(C)C)c2oc(=O)ccc12 [byakangelicol]
antiseizure activity in the locomotor assay (in words) [1]: lack of antiseizure activity

COc1ccc2ccc(=O)oc2c1CC=C(C)C [osthole]
current in the absence of GABA (in words) (GABAA receptor): neither of them induced a current in the absence of GABA
enhancement of IGABA (GABAA receptor): greater than 20%
EC50 (GABAA receptor): 14 ± 1 µM
antiseizure activity in the locomotor assay (in words) [1]: not active
protection of the animals against MES ([2]; 266 and 259 mg/kg i.p., between 15 and 30 min before the test): ~90%
effect on the anticonvulsant activity of CBZ, PB, PHT and VPA on co-administration (in words) ([2]; mice): did not have a significant effect

CC1(C)O[C@@H]1COc1c2occc2cc2ccc(=O)oc12 [heraclenin, reference compound]
enhancement of IGABA (GABAA receptor): greater than 20%

CC(C)(O)[C@H](O)COc1c2ccoc2cc2oc(=O)ccc12 [oxypeucedanin hydrate]
lowered seizure-like behavior [1]: 74%
decrease of PTZ-induced locomotor activity [1]: 43–74%
decrease of normalized PSD (PTZ-induced elevation in power spectral density) [3]: 83–89%

CC(C)=CCCC(C)=CCOc1c2occc2cc2ccc(=O)oc12 [8-geranyloxypsoralen]
antiseizure activity in the locomotor assay (in words) [1]: lack of antiseizure activity

lucidafuranocoumarin A
inhibition (antiseizure, locomotor activity) ([4]; 16 µM): 69%

O=c1ccc2ccc(O)cc2o1 [umbelliferone, 7-hydroxycoumarin]
antiseizure activity in the locomotor assay (in words) [1]: not active
increase of the electroshock threshold ([2]; 150 mg/kg i.p., 30 min before electroshock): around 37%

CC(C)=CCC/C(C)=C/COc1c2ccoc2cc2oc(=O)ccc12 [bergamottin]
inhibition (antiseizure, locomotor activity) ([4]; most active concentration, 2 µM): 26%

COc1cc2cc(Oc3ccc4ccc(=O)oc4c3)c(=O)oc2cc1O [daphnoretin]
lowered seizure-like behavior [1]: 65%
decrease of PTZ-induced locomotor activity [1]: 42–65%
decrease of normalized PSD (PTZ-induced elevation in power spectral density) [3]: 88%

CC(C)(O[C@@H]1O[C@H](CO)[C@@H](O)[C@H](O)[C@H]1O)[C@H]1Cc2cc3ccc(=O)oc3cc2O1 [nodakenin]
antiseizure activity in the locomotor assay (in words) [1]: inactive
decrease of normalized PSD (PTZ-induced elevation in power spectral density) [3]: 77%

CC1(C)O[C@H]1COc1c2ccoc2cc2oc(=O)ccc12 [oxypeucedanin]
current in the absence of GABA (in words) (GABAA receptor): neither of them induced a current in the absence of GABA
enhancement of IGABA (GABAA receptor): greater than 20%
EC50 (GABAA receptor): 25 ± 8 µM
lowered seizure-like behavior [1]: 38%
decrease of PTZ-induced locomotor activity [1]: 23–38%
decrease of normalized PSD (PTZ-induced elevation in power spectral density) [3]: 83–89%
protective properties in MES test (in words) ([2]; mice): did not show protective properties

CC[C@H](C)C(=O)OC1c2c(ccc3ccc(=O)oc23)OC(C)(C)C1OC(C)=O (stereo partly shown) [hyuganin C]
decrease of seizure-like behavior ([1]; 10 µM): 27%
decrease of seizure-like behavior ([1]; 20 µM): 35%
lowered seizure-like behavior [1]: 35%
decrease of normalized PSD (PTZ-induced elevation in power spectral density) [3]: 65%

COc1c2ccoc2c(OCC=C(C)C)c2oc(=O)ccc12 [phellopterin]
enhancement of IGABA (GABAA receptor): greater than 20%
antiseizure activity in the locomotor assay (in words) [1]: lack of antiseizure activity

CC(C)=CCOc1c2ccoc2cc2oc(=O)ccc12 [isoimperatorin]
enhancement of IGABA (GABAA receptor): greater than 20%

CC(C)=CC(O)C/C(C)=C/COc1c2ccoc2cc2oc(=O)ccc12 (stereo not shown) [notopterol]
lowered PTZ-induced locomotion ([1]; 2 µM): 54%
lowered PTZ-induced locomotion ([1]; 0.25–1 µM): 35–39%
lowered seizure-like behavior [1]: 54%
decrease of normalized PSD (PTZ-induced elevation in power spectral density) [3]: 83–89%

CCCC(CCC)C(=O)O [VPA, valproic acid, reference compound]
decrease of seizure-like behavior (PTZ-induced elevated locomotor activity), average ± SD ([1]; positive control, 1 mM, all experiments): 44 ± 34%
ED50 of classic anticonvulsant alone ([2]; mice): 281.4 mg/kg

COc1c2ccoc2c(OC[C@@H](O)C(C)(C)O)c2oc(=O)ccc12 [byakangelicin]
antiseizure activity in the locomotor assay (in words) [1]: lack of antiseizure activity

COc1c2ccoc2cc2oc(=O)ccc12 [bergapten]
protective properties in MES test (in words) ([2]; mice): did not show protective properties

CCC1(c2ccccc2)C(=O)NC(=O)NC1=O [PB, phenobarbital, reference compound]
ED50 of classic anticonvulsant alone ([2]; mice): 35.39 mg/kg

C1CCc2nnnn2CC1 [PTZ, pentylenetetrazole, reference compound]
increase in seizure-like behavior and locomotor activity (lardist sum), average ± SD ([1]; proconvulsant, 20 mM, all experiments): 59 ± 35%
